# Source: patent US20030023104A1, “Therapeutic compound - fatty acid conjugates” (COMMONWEALTH SCIENTIFIC AND INDUSTRIAL RESEARCH ORGANISATION, priority 1995, published 2003)
# Several values for one entry are separate records, joined by “and”; a condition that tells them apart may be missing. Equal values may be shown once. Read-outs that look alike come from different tables or passages of the source.
# Columns and labels:
# UVB induced oedema = assay: UVB erythema assay (net skin fold thickness); type: in vivo, Skh-1 hairless albino female mice
# [1] = system: reserpine-induced catatonia; assay: Anti-reserpine activity (reserpine-induced catatonia); conditions: for Response at 15 min.: individual mice 1 and 2
# Description: The biological activities of L-DOPA and L-DOPA-GTP2 were tested in an animal model of Parkinsons' disease, a condition caused by low levels of the neurotransmitter dopamine in the brain. Mice were pretreated with reserpine which depletes dopamine and causes animals to become catatonic. The ability of L-DOPA and L-DOPA-GTP2 to reverse this condition was measured.
# Mice were injected intraperitoneally (ip) with reserpine (5 mg/kg) and 4 hours later tested for catatonia. A mouse was judged to be catatonic if it was able to stay on a stopper of 4.5 cm diameter for 5 minutes. Catatonic animals were then injected ip with L-DOPA or L-DOPA-GTP2 suspended in Miglyol (200-400 μl/mouse) immediately before use and observed.
# B16 melanoma cells = assay: Tumour Cytotoxicity Model (B16 melanoma in C57 mice); type: in vivo, C57 black mice; parameters: Mean (standard error) of B16 tumour volume adjusted for the variation in initial volume: scale not given here; conditions: for difference in tumour volume from the Vehicle group (95% level): 0.5 mg and 1.0 mg groups; for Mean (standard error) of B16 tumour volume adjusted for the variation in initial volume: statistically modified tumour volume; for B16 Tumour Volume: individual mice
# Description: Groups of C57 black mice were given an initiation dose of 2×10^5 B16 melanoma cells as an intradermal injection. The cells were suspended in MEM without serum. The abdomen was clipped and 100 μl of cells + MEM was injected. […] The tumours were measured with a micrometer and photographed just prior to the injection of drug (day 8-10).
# The cytotoxic drugs and their fatty acid conjugates were dissolved or suspended in 4:1 soy bean oil:ethyl oleate. A 10 mg/ml or a 20 mg/ml solution of each parent drug or the fatty acid conjugate made to the same molar concentration as the parent drug was then injected into the same region as the tumour at a dose of 0.5 mg or 1 mg. The tumours were then photographed, measured and re-injected every two to three days.
# [2] = system: pain response on heated plate; conditions: for mean time response: standard error of each mean ±2.86
# Description: The biological activities of Morphine (Mo) and fatty acid conjugates were tested in an antinociceptive assay using mice. Various doses and duration of pain-killing effect of the drugs were examined.
# Quackenbush Strain mice (male, 5-week-old, approximately 30 g live weight) were used for the experiments. Animals were given free access to food and water prior to and during the experiment. Animals were divided into groups of 12 and individually weighed. The mean weight for each group was calculated. Mice were then placed on a metal block heated to 50° C. and the time taken for the animals to show signs of discomfort was measured (baseline response: control). Mice were then injected intraperitoneally (ip) with various doses of Morphine or Morphine-fatty acid conjugate. Morphine was made up in a H2O solution and Morphine-fatty acids were made up in an emulsion containing 10% glycerylmonooleate, 21% Miglyol, 6% ethanol, 24% Tween 80 (33%) and 39% H2O. 0.2 ml of appropriate solution was injected ip into each mouse. At different times after injection, responses on the heated plate were measured. In each experiment 3 doses of Morphine and Morphine-fatty acid and 2 time points were tested. A single mouse was used for each treatment and the entire experiment repeated at least 3 times. […] Members of the panel were asked to score mice behaviour according to the following key:
# 0=agitated mouse, distressed
# 1=showing mild discomfort
# 2=not agitated or uncomfortable but still alert
# 3=placid. docile; not at all worried.
# Results from the panel were averaged.
# [3] = DOPA moiety 364 mg/kg ip, 20 min
# [4] = DOPA moiety 637 mg/kg ip, 20 min
smiles,measurement,setting,value
"CCCCCCCCCCCCCCCC(=O)OCC(COC(=O)CCCCCCCCCCCCCCC)(COC(=O)CCCCCCCCCCCCCCC)NC(=O)CNC(=O)CCC(=O)OCC(=O)C1(O)CCC2C3CCC4=CC(=O)CCC4(C)C3C(O)CC21C (stereo not drawn) [HC-Suc-GTP3, Hydrocortisone-Suc-Gly-Tris-Tripalmitate]",Mean Net Skin Fold Thickness,"UVB induced oedema; 0.5 mg/mouse topical in ethanol, applied Day −5 (5 days prior to UV exposure), 2MED UVB, measured 24 h",93.8 ± 9.8 10^−2 mm
same,Mean Net Skin Fold Thickness,"UVB induced oedema; 0.5 mg/mouse topical, applied Day 0 after UV exposure, 2MED UVB",55.8 ± 11.7 10^−2 mm
same,Mean Net Skin Fold Thickness,"UVB induced oedema; 0.5 mg/mouse topical, applied Day −3 (3 days prior to UV exposure), 2MED UVB",86.7 ± 9.4 10^−2 mm
same,activity equivalent to % of the hydrocortisone activity in protecting against UVB induced oedema,"UVB induced oedema; 0.5 mg/mouse, applied at Day 0, post UVB exposure",approximately 50%
same,Mean Net Skin Fold Thickness,"UVB induced oedema; 1 mg/mouse (1% w/v) topical, applied Day 0 after UV exposure",27.9 ± 7.5
same,Mean Net Skin Fold Thickness,"UVB induced oedema; 1 mg/mouse (1% w/v) topical, applied Day −3",62.9 ± 4.0
same,Mean Net Skin Fold Thickness,"UVB induced oedema; 1 mg/mouse (1% w/v) topical, applied Day −5",103.8 ± 3.0
"N[C@@H](Cc1ccc(O)c(O)c1)C(=O)O [L-DOPA, 3-(3,4-dihydroxyphenyl)-alanine, reference compound]",Anti-Reserpine Activity (response),[1]; [3],+
same,Anti-Reserpine Activity (response),[1]; [4],+
same,Response at 15 min.,[1]; L-DOPA moiety 9.1 mg/kg ip,−
same,Response at 15 min.,[1]; L-DOPA moiety 91 mg/kg ip,− and +
same,Response at 15 min.,[1]; L-DOPA moiety 364 mg/kg ip,+
same,Response at 15 min.,[1]; L-DOPA moiety 637 mg/kg ip,+
same,Response at 15 min.,[1]; L-DOPA moiety 910 mg/kg ip,+
same,doses at which all catatonic animals became active,"[1]; ip, Experiment 1",≥ 364 mg/kg
same,toxic effects observed in treated catatonic mice,"[1]; mouse, in vivo, ip","toxic effects of L-DOPA such as rearing, salivating and jumping"
"CCCCCCCCCCCCCCCC(=O)OCC(CO)(COC(=O)CCCCCCCCCCCCCCC)NC(=O)CNC(=O)[C@@H](N)Cc1ccc(O)c(O)c1 [L-DOPA-GTP2, DOPA-Gly-Tris-Dipalmitate]",time after administration at which signs of recovery showed,[1]; 364 mg DOPA/kg ip,7 h
same,time after administration at which signs of recovery showed,[1]; 637 mg DOPA/kg ip,5 h
same,recovery from catatonia at low doses,[1]; 9.1 and 91 mg DOPA/kg ip,did not recover
same,Anti-Reserpine Activity (response),"[1]; DOPA moiety 9.1 mg/kg ip, 20 min",− −
same,Anti-Reserpine Activity (response),"[1]; DOPA moiety 9.1 mg/kg ip, 2 hr",− −
same,Anti-Reserpine Activity (response),"[1]; DOPA moiety 9.1 mg/kg ip, 5 hr",− −
same,Anti-Reserpine Activity (response),"[1]; DOPA moiety 9.1 mg/kg ip, 6 hr",− −
same,Anti-Reserpine Activity (response),"[1]; DOPA moiety 9.1 mg/kg ip, 7 hr",− −
same,Anti-Reserpine Activity (response),"[1]; DOPA moiety 9.1 mg/kg ip, 8 hr",− −
same,Anti-Reserpine Activity (response),"[1]; DOPA moiety 91 mg/kg ip, 20 min",− −
same,Anti-Reserpine Activity (response),"[1]; DOPA moiety 91 mg/kg ip, 2 hr",− −
same,Anti-Reserpine Activity (response),"[1]; DOPA moiety 91 mg/kg ip, 5 hr",− −
same,Anti-Reserpine Activity (response),"[1]; DOPA moiety 91 mg/kg ip, 6 hr",− −
same,Anti-Reserpine Activity (response),"[1]; DOPA moiety 91 mg/kg ip, 7 hr",− −
same,Anti-Reserpine Activity (response),"[1]; DOPA moiety 91 mg/kg ip, 8 hr",− −
same,Anti-Reserpine Activity (response),[1]; [3],− −
same,Anti-Reserpine Activity (response),"[1]; DOPA moiety 364 mg/kg ip, 2 hr",− −
same,Anti-Reserpine Activity (response),"[1]; DOPA moiety 364 mg/kg ip, 5 hr",− −
same,Anti-Reserpine Activity (response),"[1]; DOPA moiety 364 mg/kg ip, 6 hr",− −
same,Anti-Reserpine Activity (response),"[1]; DOPA moiety 364 mg/kg ip, 7 hr",M —
same,Anti-Reserpine Activity (response),"[1]; DOPA moiety 364 mg/kg ip, 8 hr",M M
same,Anti-Reserpine Activity (response),[1]; [4],−
same,Anti-Reserpine Activity (response),"[1]; DOPA moiety 637 mg/kg ip, 2 hr",−
same,toxic effects observed in treated catatonic mice,"[1]; ip in Miglyol, active doses",did not exhibit the high activity level and toxic effects
"CCCCCCCCCCCCCCCC(=O)OCC(CO)(COC(=O)CCCCCCCCCCCCCCC)NC(=O)CNC(=O)CC[C@H](NC(=O)c1ccc(N(C)Cc2cnc3nc(N)nc(N)c3n2)cc1)C(=O)O [MTXGTP2, Methotrexate-γ-Gly-Tris-Dipalmitate]",difference in tumour volume from the Vehicle group (95% level),B16 melanoma cells,significant difference
same,Mean (standard error) of B16 tumour volume adjusted for the variation in initial volume,"B16 melanoma cells; 13/11/95, 0.5 mg",2.04 (0.565)
same,Mean (standard error) of B16 tumour volume adjusted for the variation in initial volume,"B16 melanoma cells; 13/11/95, 1.0 mg",2.30 (0.536)
same,Mean (standard error) of B16 tumour volume adjusted for the variation in initial volume,"B16 melanoma cells; 15/11/95, 0.5 mg",3.37 (0.884)
same,Mean (standard error) of B16 tumour volume adjusted for the variation in initial volume,"B16 melanoma cells; 15/11/95, 1.0 mg",3.40 (0.839)
same,Mean (standard error) of B16 tumour volume adjusted for the variation in initial volume,"B16 melanoma cells; 16/11/95, 0.5 mg",3.76 (1.06)
same,Mean (standard error) of B16 tumour volume adjusted for the variation in initial volume,"B16 melanoma cells; 16/11/95, 1.0 mg",4.13 (1.01)
same,Mean (standard error) of B16 tumour volume adjusted for the variation in initial volume,"B16 melanoma cells; 17/11/95, 0.5 mg",4.03 (1.28)
same,Mean (standard error) of B16 tumour volume adjusted for the variation in initial volume,"B16 melanoma cells; 17/11/95, 1.0 mg",4.89 (1.22)
same,B16 Tumour Volume,"B16 melanoma cells; Day 1, drug dose 0.5 mg injected at tumour region",0.5 mm^2 (2×) and 2.7 mm^2 and 16.6 mm^2
same,B16 Tumour Volume,"B16 melanoma cells; Day 1, drug dose 1.0 mg",0.1 mm^2 and 8.2 mm^2 (2×) and 10.8 mm^2
same,B16 Tumour Volume,"B16 melanoma cells; Day 3, drug dose 0.5 mg",0 mm^2 (3×) and 16.6 mm^2
same,B16 Tumour Volume,"B16 melanoma cells; Day 3, drug dose 1.0 mg",0.1 mm^2 and 10.8 mm^2 and 0 mm^2 and 30.4 mm^2
same,B16 Tumour Volume,"B16 melanoma cells; Day 5, drug dose 0.5 mg",0 mm^2 (2×) and 11.8 mm^2 and 64.5 mm^2
same,B16 Tumour Volume,"B16 melanoma cells; Day 5, drug dose 1.0 mg",0.5 mm^2 and 21.8 mm^2 and 0 mm^2 and 142.5 mm^2
same,B16 Tumour Volume,"B16 melanoma cells; Day 6, drug dose 0.5 mg",0 mm^2 (2×) and 19.8 mm^2 and 77.6 mm^2
same,B16 Tumour Volume,"B16 melanoma cells; Day 6, drug dose 1.0 mg",0.5 mm^2 and 46.8 mm^2 and 0 mm^2 and 261.8 mm^2
same,B16 Tumour Volume,"B16 melanoma cells; Day 7, drug dose 0.5 mg",0 mm^2 (2×) and 26 mm^2 and 113 mm^2
same,B16 Tumour Volume,"B16 melanoma cells; Day 7, drug dose 1.0 mg",14 mm^2 and 50 mm^2 and 0 mm^2 and 379 mm^2
"CN(Cc1cnc2nc(N)nc(N)c2n1)c1ccc(C(=O)N[C@@H](CCC(=O)O)C(=O)O)cc1 [Methotrexate, reference compound]",difference in tumour volume from the Vehicle group (95% level),B16 melanoma cells,no significant difference
same,Mean (standard error) of B16 tumour volume adjusted for the variation in initial volume,"B16 melanoma cells; 13/11/95, 0.5 mg",3.58 (0.610)
same,Mean (standard error) of B16 tumour volume adjusted for the variation in initial volume,"B16 melanoma cells; 15/11/95, 0.5 mg",5.47 (0.955)
same,Mean (standard error) of B16 tumour volume adjusted for the variation in initial volume,"B16 melanoma cells; 16/11/95, 0.5 mg",6.07 (1.15)
same,Mean (standard error) of B16 tumour volume adjusted for the variation in initial volume,"B16 melanoma cells; 17/11/95, 0.5 mg",7.24 (1.38)
same,B16 Tumour Volume,"B16 melanoma cells; Day 1, drug dose 0.5 mg injected at tumour region, listed as MTX",0.5 mm^2 and 3.8 mm^2 and 14.1 mm^2 and 26 mm^2
same,B16 Tumour Volume,"B16 melanoma cells; Day 3, drug dose 0.5 mg, listed as MTX",13.6 mm^2 and 4.2 mm^2 and 30.4 mm^2 and 86 mm^2
same,B16 Tumour Volume,"B16 melanoma cells; Day 5, drug dose 0.5 mg, listed as MTX",73.5 mm^2 and 14.1 mm^2 and 86.0 mm^2 and 219.4 mm^2
same,B16 Tumour Volume,"B16 melanoma cells; Day 6, drug dose 0.5 mg, listed as MTX",125.1 mm^2 and 14.1 mm^2 and 215.0 mm^2 and 266.5 mm^2
same,B16 Tumour Volume,"B16 melanoma cells; Day 7, drug dose 0.5 mg, listed as MTX",190 mm^2 and 21 mm^2 and 234 mm^2 and 515 mm^2
"CCCCCCCCCCCCCCCC(=O)OCC(COC(=O)CCCCCCCCCCCCCCC)(COC(=O)CCCCCCCCCCCCCCC)NC(=O)CNC(=O)CCC(=O)Oc1ccc2c3c1O[C@H]1[C@@H](O)C=C[C@H]4[C@@H](C2)N(C)CC[C@@]341 [Mo-Suc-GTP3, Morphine-Suc-Gly-Tris Tripalmitate]",mean time response,"[2]; 1 mg Mo/kg ip, 4 hr",23.5 s
same,mean time response,"[2]; 1 mg Mo/kg ip, 6 hr",27.8 s
same,mean time response,"[2]; 10 mg Mo/kg ip, 4 hr",29.8 s
same,mean time response,"[2]; 10 mg Mo/kg ip, 6 hr",29.0 s
same,duration of pain-killing effect compared with morphine,[2]; ip injection,longer lasting effect than morphine
